Key:
[1] = Pharmacokinetic experiment, oral capsules in Beagle dogs; type: in vivo; conditions: male Beagle dogs, 5 mg/kg
Experimental: The crystal form of the compound having Formula (I) was filled into capsules, which were used for oral administration.
Three male Beagle dogs weighing 8-12 kg were orally administered with capsules containing the test sample at a dose of 5 mg/kg, and blood samples were taken at time points of 0.25 h, 0.5 h, 1.0 h, 2.0 h, 4.0 h, 6.0 h, 8.0 h and 24 h. Standard curve was plotted based on concentrations of the samples in a suitable range, the concentration of the test sample in the plasma sample was measured and quantified by AB SCIEX API4000 LC-MS/MS at MRM mode. Pharmacokinetic parameters were calculated according to drug concentration -time curve using a noncompartmental method by WinNonLin 6.3 software.

[2] = Stability experiment: high-temperature test; type: physicochemical; conditions: for Purity (%): HPLC
Experimental: (1) High-temperature test: A batch of the test sample was taken into a flat weighing bottle, divided into ≤5 mm thick thin layer. The sample was placed at 60° C. for 30 days. The sample was then sampled at day 5, day 13 and day 30, and the change of the sample's color was observed. The purity of the sample was detected by HPLC.

[3] = Stability experiment: high-humidity test; type: physicochemical; conditions: for Purity (%): HPLC; for Purity (%) / Appearance: High-humidity 25° C., RH 90%±5%
Experimental: (2) High-humidity test: take a batch of the test sample into the flat weighing bottle, divided into ≤5 mm thick thin layer. The samples were sampled at 25° C. and RH for 90%±5% for 30 days. The samples were sampled at day 5, 13 and day 30, and the sample color was observed. The purity of the sample was determined by HPLC.

[4] = Stability experiment: photostability (lighting) test; type: physicochemical; conditions: for Purity (%): HPLC; for Purity (%) / Appearance: Lighting, open light box with UV
Description: (3) Photostability Test: A batch of the test sample was taken into a flat weighing bottle, divided into ≤5 mm thick thin layer. The sample was placed in an opened light box (with UV) at the illuminance […], UV light≥0.7 w/m^2 for 30 days. The sample was then sampled at day 5, day 13 and day 30, and the change of the sample's color was observed. The purity of the sample was detected by HPLC.

[5] = Hygroscopicity experiment (dynamic vapor sorption); type: physicochemical
Experimental: The hygroscopicity of the present invention is measured using the DVS INT-Std dynamic moisture and gas adsorption analyzer of the Surface Measurement Systems Company in UK. The humidity test range was 0%-95%, the air flow was 200 mL/min, the temperature was 25° C., test point: take one test point per […] 5% humidity.
An appropriate amount of the test sample was taken and the hygroscopicity of the test sample was tested by dynamic moisture adsorption device. The description of the hygroscopic characteristics and the definition of the hygroscopic weight gain (Appendix 9103 of Chinese Pharmacopoeia 2020 Edition, Guidelines for Drug Hygroscopicity Tests, experimental conditions: 25° C.±1° C., 80%±2% relative humidity) are described in the table below: […]

[6] = High-temperature 60° C., day 13
[7] = High-temperature 60° C., day 30
[8] = day 0 (start, common to all conditions)

SMILES: O=C(O)c1ccc2c(c1)Oc1ccc(OCc3c(-c4c(Cl)cccc4Cl)noc3C3CC3)nc1C1(CC1)C2 [Crystal form I, 2-((5-cyclopropyl-3-(2,6-dichlorophenyl)isoxazol-4-yl)methoxy)-10H-spiro[benzo[6,7]oxepino[3,2-b]pyridine-11,1′-cyclopropane]-7-carboxylic acid]
- AUC(0-t) ([1]; dog, plasma): 1020 ng·h/mL
- Cmax ([1]; dog, plasma): 389 ng/mL
- Tmax [1]: 1.67 h
- Purity (%) ([2]; High-temperature 60° C., day 5): 99.83%
- Purity (%) [2, 6]: 99.91%
- Purity (%) [2, 7]: 99.70%
- Purity (%) [2, 8]: 99.88%
- Appearance ([2]; High-temperature 60° C., day 5): White
- Appearance [2, 6]: White
- Appearance [2, 7]: White
- Appearance [2, 8]: White
- crystal structure stability ([2]; high temperature conditions): remains basically unchanged
- Purity (%) ([3]; day 5): 99.81%
- Purity (%) ([3]; day 13): 99.70%
- Purity (%) ([3]; day 30): 99.82%
- Appearance ([3]; day 5): White
- Appearance ([3]; day 13): White
- Appearance ([3]; day 30): White
- crystal structure stability ([3]; high humidity conditions): remains basically unchanged
- Purity (%) ([4]; day 5): 99.88%
- Purity (%) ([4]; day 13): 99.59%
- Purity (%) ([4]; day 30): 99.83%
- Appearance ([4]; day 5): White
- Appearance ([4]; day 13): White
- Appearance ([4]; day 30): White
- crystal structure stability ([4]; lighting conditions): remains basically unchanged
- hygroscopic weight gain ([5]; after equilibrium at relative humidity of 80%, 25° C.): less than 0.2%
- hygroscopic characteristics ([5]; relative humidity of 80%, criterion of Chinese Pharmacopoeia 2020 Appendix 9103): no or almost no hygroscopicity
